Results on 11 molecules are retold here after patent US20240400555A1 (Initial Therapeutics, Inc., priority 2023, published 2024).

The experiment has as its system HCT-116 Firefly-luciferase reporter cells. Nature of the experiment: Cellular c-MYC Reporter Assay. In kind it is cell-based. The settings on record: Homo sapiens; untitled table following Table 8a; HCT-116 Firefly-luciferase reporter cells, 24 h; read-out: pIC50 (converted). In short, it runs like this:
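Compound exposure lasted 24 h at 37 °C, 5% CO2, in complete McCoy's 5A medium containing 0.2% DMSO, beginning 4–6 h post-seeding (5e4 cells/mL). Firefly luciferase signal measured by luminescence after 10 min ONE-Glo development at room temperature.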
A general note: In a reporter assay the amount or activity of a reporter protein is the signal.
Regarding `O=C(c1ccc(-n2nnc3cccnc32)cc1F)N(c1nccc2sc(/C=C/CO)cc12)[C@@H]1CCCNC1` [Example 158, (R,E)-4-(3H-[1,2,3]triazolo[4,5-b]pyridin-3-yl)-2-fluoro-N-(2-(3-hydroxyprop-1-en-1-yl)thieno[3,2-c]pyridin-4-yl)-N-(piperidin-3-yl)benzamide], the IC50 was 692 nM.
For `O=C(c1ccc(-n2nnc3cccnc32)cc1F)N(c1nccc2sc(C3=CCNCC3)cc12)[C@@H]1CCCNC1` [Example 159, (R)-4-(3H-[1,2,3]triazolo[4,5-b]pyridin-3-yl)-2-fluoro-N-(piperidin-3-yl)-N-(2-(1,2,3,6-tetrahydropyridin-4-yl)thieno[3,2-c]pyridin-4-yl)benzamide] the value was 2630 nM.
Then `O=C(c1ccc(-n2nnc3cccnc32)cc1F)N(c1nccc2sc(-c3cn[nH]c3)cc12)[C@@H]1CCCNC1` [Example 160, (R)—N-(2-(1H-pyrazol-4-yl)thieno[3,2-c]pyridin-4-yl)-4-(3H-[1,2,3]triazolo[4,5-b]pyridin-3-yl)-2-fluoro-N-(piperidin-3-yl)benzamide], with 447 nM; and `O=C(c1ccc(-n2nnc3cccnc32)cc1F)N(c1nccc2sc(-c3ccncc3)cc12)[C@@H]1CCCNC1` [Example 161, (R)-4-(3H-[1,2,3]triazolo[4,5-b]pyridin-3-yl)-2-fluoro-N-(piperidin-3-yl)-N-(2-(pyridin-4-yl)thieno[3,2-c]pyridin-4-yl)benzamide], with 417 nM.
For `O=C(c1ccc(-n2nnc3cccnc32)cc1F)N(c1nccc2sc(Br)cc12)[C@@H]1CCCNC1` [Example 162, (R)-4-(3H-[1,2,3]triazolo[4,5-b]pyridin-3-yl)-N-(2-bromothieno[3,2-c]pyridin-4-yl)-2-fluoro-N-(piperidin-3-yl)benzamide] the value was 776 nM; for `O=C(c1ccc(-n2nnc3cccnc32)cc1F)N(c1nccc2cccc(/C=C/c3cccnc3)c12)[C@@H]1CCCNC1` [Example 163, (R,E)-4-(3H-[1,2,3]triazolo[4,5-b]pyridin-3-yl)-2-fluoro-N-(piperidin-3-yl)-N-(8-(2-(pyridin-3-yl)vinyl)isoquinolin-1-yl)benzamide], 537 nM; for `N#Cc1cccc2ccnc(N(C(=O)c3ccc(-n4nnc5cccnc54)cc3F)[C@@H]3CCCNC3)c12` [Example 164, (R)-4-(3H-[1,2,3]triazolo[4,5-b]pyridin-3-yl)-N-(8-cyanoisoquinolin-1-yl)-2-fluoro-N-(piperidin-3-yl)benzamide], 97.7 nM.
Take `O=C(c1ccc(-n2nnc3cccnc32)cc1F)N(c1nccc2cccc(/C=C/CO)c12)[C@@H]1CCCNC1` [Example 165, (R,E)-4-(3H-[1,2,3]triazolo[4,5-b]pyridin-3-yl)-2-fluoro-N-(8-(3-hydroxyprop-1-en-1-yl)isoquinolin-1-yl)-N-(piperidin-3-yl)benzamide]: the IC50 is 170 nM.
Then `O=C(c1ccc(-n2nnc3cccnc32)cc1F)N(c1nccc2cccc(/C=C/CCO)c12)[C@@H]1CCCNC1` [Example 166, (R,E)-4-(3H-[1,2,3]triazolo[4,5-b]pyridin-3-yl)-2-fluoro-N-(8-(4-hydroxybut-1-en-1-yl)isoquinolin-1-yl)-N-(piperidin-3-yl)benzamide], with 141 nM; and `COC(=O)c1cccnc1N(C(=O)c1ccc(-n2nnc3cccnc32)cc1F)[C@@H]1CCCNC1` [Example 167, methyl (R)-2-(4-(3H-[1,2,3]triazolo[4,5-b]pyridin-3-yl)-2-fluoro-N-(piperidin-3-yl)benzamido)nicotinate], with 661 nM; and `Cc1cccc2ccnc(N(C(=O)c3ccc(CO)cc3F)[C@@H]3CCCNC3)c12` [Example 168, (R)-2-fluoro-4-(hydroxymethyl)-N-(8-methylisoquinolin-1-yl)-N-(piperidin-3-yl)benzamide], with 5250 nM.
